Test system in the first data set: not listed separately
The experiment in a line: first dissolution test in DMSO or water. As to conditions: first dissolution test; amount for a 3M solution in 0.5 mL; DMSO, up to 15000 μL. The method, then:
Each of the powder of p-TSA derivatives was duplicated, placed in each 15 mL centrifuge tube, followed by adding 200 μL DMSO or 200 μL water and shaking for 10 to 20 seconds for dissolution observation. If the powder was not dissolved, additional DMSO or water was added, and then the mixture was shaken. The tube was left to stand for 10 minutes for observation if the powder was still not dissolved after adding 1 mL DMSO or 1 mL water. If the powder was still not dissolved after adding 5 mL DMSO or 5 mL water, additional 1 mL DMSO or 1 mL water was added, and then the mixture was shaken for 30 seconds. If the powder was still not dissolved after adding 10 mL DMSO or 10 mL water, the tube was left to stand for 12 to 16 hours and observed on the next day. DMSO or water was added into the tube having the undissolved p-TSA derivatives up to 15 mL, followed by shaking for 30 minutes for observation.
For `Cc1ccc(S(=O)(=O)NC(C)CO)cc1` (centres unmarked) [PTSA025], the “Total volume of DMSO for dissolving the p-TSA derivatives” value turned out to be 560 µL.

For the molecule `Cc1ccc(S(=O)(=O)N[C@@H](C)CO)cc1` [PTSA026], the “Total volume of DMSO for dissolving the p-TSA derivatives” value amounted to 500 µL.

With `Cc1ccc(S(=O)(=O)NC[C@@H](O)CO)cc1` [PTSA027], the “Total volume of DMSO for dissolving the p-TSA derivatives” value was 575 µL.

In the case of `Cc1ccc(S(=O)(=O)NCC(O)CO)cc1` (centres unmarked) [PTSA028], the “Total volume of DMSO for dissolving the p-TSA derivatives” value was 620 µL.

Consider `Cc1ccc(S(=O)(=O)NC(CO)CO)cc1` [PTSA029], for which the “Total volume of DMSO for dissolving the p-TSA derivatives” value came out at 500 µL.

For `Cc1ccc(S(=O)(=O)NC(C)(CO)CO)cc1` [PTSA030], the “Total volume of DMSO for dissolving the p-TSA derivatives” value came out at 695 µL.

As to `Cc1ccc(S(=O)(=O)NC(CO)(CO)CO)cc1` [PTSA031], the “Total volume of DMSO for dissolving the p-TSA derivatives” value is 700 µL.

In the case of `Cc1ccc(S(=O)(=O)N2CCC[C@H]2CO)cc1` [PTSA033], the “Total volume of DMSO for dissolving the p-TSA derivatives” value amounted to 500 µL.

For `Cc1ccc(S(=O)(=O)N2CCCC2CO)cc1` (centres unmarked) [PTSA034], the “Total volume of DMSO for dissolving the p-TSA derivatives” value was determined as 505 µL.

Turning to `Cc1ccc(S(=O)(=O)N2CC[C@@H](O)C2)cc1` [PTSA035], the “Total volume of DMSO for dissolving the p-TSA derivatives” value was found to be 490 µL.

Take `Cc1ccc(S(=O)(=O)N2CCC(O)C2)cc1` (centres unmarked) [PTSA036]: the “Total volume of DMSO for dissolving the p-TSA derivatives” value turned out to be 530 µL.

Consider `Cc1ccc(S(=O)(=O)NCC(F)(F)F)cc1` [PTSA050], for which the “Total volume of DMSO for dissolving the p-TSA derivatives” value worked out at 590 µL.

In the case of `Cc1ccc(S(=O)(=O)N2CC(=NO)C2)cc1` [PTSA070], the “Total volume of DMSO for dissolving the p-TSA derivatives” value is 850 µL.

Still in this data set, the particulars now being: first dissolution test; amount for a 3M solution in 0.5 mL; water, up to 15000 μL.
For `Cc1ccc(S(=O)(=O)NC(C)CO)cc1` (centres unmarked) [PTSA025], the “Total volume of water for dissolving the p-TSA derivatives” value was “insoluble in 15000 μL”.

For `Cc1ccc(S(=O)(=O)N[C@@H](C)CO)cc1` [PTSA026], the “Total volume of water for dissolving the p-TSA derivatives” value is given as “insoluble in 15000 μL”.

Regarding `Cc1ccc(S(=O)(=O)NC[C@@H](O)CO)cc1` [PTSA027], the “Total volume of water for dissolving the p-TSA derivatives” value was “insoluble in 15000 μL”.

`Cc1ccc(S(=O)(=O)NCC(O)CO)cc1` (centres unmarked) [PTSA028]: the “Total volume of water for dissolving the p-TSA derivatives” value is listed as “insoluble in 15000 μL”.

Take `Cc1ccc(S(=O)(=O)NC(CO)CO)cc1` [PTSA029]: the “Total volume of water for dissolving the p-TSA derivatives” value is “insoluble in 15000 μL”.

As to `Cc1ccc(S(=O)(=O)NC(C)(CO)CO)cc1` [PTSA030], the “Total volume of water for dissolving the p-TSA derivatives” value is “insoluble in 15000 μL”.

Turning to `Cc1ccc(S(=O)(=O)NC(CO)(CO)CO)cc1` [PTSA031], the “Total volume of water for dissolving the p-TSA derivatives” value amounted to 10000 µL.

Take `Cc1ccc(S(=O)(=O)N2CCC[C@H]2CO)cc1` [PTSA033]: the “Total volume of water for dissolving the p-TSA derivatives” value is “insoluble in 15000 μL”.

With `Cc1ccc(S(=O)(=O)N2CCCC2CO)cc1` (centres unmarked) [PTSA034], the “Total volume of water for dissolving the p-TSA derivatives” value was “insoluble in 15000 μL”.

Take `Cc1ccc(S(=O)(=O)N2CC[C@@H](O)C2)cc1` [PTSA035]: the “Total volume of water for dissolving the p-TSA derivatives” value is “insoluble in 15000 μL”.

As for `Cc1ccc(S(=O)(=O)N2CCC(O)C2)cc1` (centres unmarked) [PTSA036], the “Total volume of water for dissolving the p-TSA derivatives” value is “insoluble in 15000 μL”.

`Cc1ccc(S(=O)(=O)NCC(F)(F)F)cc1` [PTSA050]: the “Total volume of water for dissolving the p-TSA derivatives” value is recorded as “insoluble in 15000 μL”.

Consider `Cc1ccc(S(=O)(=O)N2CC(=NO)C2)cc1` [PTSA070], for which the “Total volume of water for dissolving the p-TSA derivatives” value is “insoluble in 15000 μL”.

The test system of another data set is human liver cancer cell lines Hep3B. Briefly: SRB growth inhibition of liver cancer cells. Type of data set: cell-based. As to conditions: Homo sapiens, Hep3B, 48 h, derivative dissolved in DMSO; 48 hours; SRB; read-out: IC50 of Hep3B in DMSO. The method, then: (§1) After letting to stand for 10 minutes at room temperature, the supernatant of each well was removed, and each well was washed with 200 μL H2O once. […] Each of the plates was then placed in the laminar flow cabinet for 1 hour for air dry. 50 μL 0.4% sulforhodamine B (SRB) dye was added into each well of the 96-well plate. […] Each of the plates was then placed in the laminar flow cabinet for 40 minutes to 1 hour for air dry. 1×Tris-Base solution with pH 7.0 to 7.4 was added to each well of the 96-well plate to dissolve the protein complex formed in the bottom of each well, followed by tapping the 96-well plate, allowing the complex in each well to be dissolved uniformly. Absorption of each well under 515 nm was read. […] Each of the experimental group was performed in triplet.
With `Cc1ccc(S(=O)(=O)NC(C)CO)cc1` (centres unmarked) [PTSA025], the IC50 (as a rule, the concentration that gives 50% inhibition) was found to be 3.54 mM.

Regarding `Cc1ccc(S(=O)(=O)N[C@@H](C)CO)cc1` [PTSA026], the IC50 was found to be 3.92 mM.

On to `Cc1ccc(S(=O)(=O)NC[C@@H](O)CO)cc1` [PTSA027], for which the IC50 was determined as 4.1 mM.

Consider `Cc1ccc(S(=O)(=O)NCC(O)CO)cc1` (centres unmarked) [PTSA028], for which the IC50 is 5.36 mM.

For the molecule `Cc1ccc(S(=O)(=O)NC(CO)CO)cc1` [PTSA029], the IC50 amounted to 3.05 mM.

In the case of `Cc1ccc(S(=O)(=O)NC(C)(CO)CO)cc1` [PTSA030], the IC50 came out at 4.31 mM.

Take `Cc1ccc(S(=O)(=O)NC(CO)(CO)CO)cc1` [PTSA031]: the IC50 came to 4.21 mM.

Regarding `Cc1ccc(S(=O)(=O)N2CCC[C@H]2CO)cc1` [PTSA033], the IC50 came out at 1.76 mM.

Regarding `Cc1ccc(S(=O)(=O)N2CCCC2CO)cc1` (centres unmarked) [PTSA034], the IC50 is 1.78 mM.

Regarding `Cc1ccc(S(=O)(=O)N2CC[C@@H](O)C2)cc1` [PTSA035], the IC50 came to 2.28 mM.

Take `Cc1ccc(S(=O)(=O)N2CCC(O)C2)cc1` (centres unmarked) [PTSA036]: the IC50 turned out to be 3.4 mM.

The data set is the same for the next values; noted with them: Homo sapiens, Hep3B, 48 h, derivative dissolved in water; 48 hours; SRB; read-out: IC50 of Hep3B in water.
Regarding `Cc1ccc(S(=O)(=O)NC(CO)(CO)CO)cc1` [PTSA031], the half-inhibitory concentration (IC50) is > 1 mM.

For another data set, the system named is human non-small-cell lung cancer cell lines H460. Briefly: SRB growth inhibition of lung cancer cells. Type of data set: cell-based. The conditions noted are these: Homo sapiens, NCI-H460, 48 h, derivative dissolved in DMSO; 48 hours; SRB; read-out: IC50 of H460 in DMSO. The method, then: as §1
On to `Cc1ccc(S(=O)(=O)NC(C)CO)cc1` (centres unmarked) [PTSA025], for which the IC50 amounted to 3.15 mM.

Turning to `Cc1ccc(S(=O)(=O)N[C@@H](C)CO)cc1` [PTSA026], the IC50 was 3.25 mM.

Consider `Cc1ccc(S(=O)(=O)NC[C@@H](O)CO)cc1` [PTSA027], for which the IC50 worked out at 5.35 mM.

`Cc1ccc(S(=O)(=O)NCC(O)CO)cc1` (centres unmarked) [PTSA028]: the IC50 came out at 5.53 mM.

Take `Cc1ccc(S(=O)(=O)NC(CO)CO)cc1` [PTSA029]: the IC50 was determined as 1.97 mM.

For `Cc1ccc(S(=O)(=O)NC(C)(CO)CO)cc1` [PTSA030], the IC50 was 3.3 mM.

In the case of `Cc1ccc(S(=O)(=O)NC(CO)(CO)CO)cc1` [PTSA031], the IC50 was 3.31 mM.

For the molecule `Cc1ccc(S(=O)(=O)N2CCC[C@H]2CO)cc1` [PTSA033], the IC50 is 1.42 mM.

On to `Cc1ccc(S(=O)(=O)N2CCCC2CO)cc1` (centres unmarked) [PTSA034], for which the half-maximal inhibitory concentration (IC50) is 1.5 mM.

Take `Cc1ccc(S(=O)(=O)N2CC[C@@H](O)C2)cc1` [PTSA035]: the IC50 was 2.83 mM.

On to `Cc1ccc(S(=O)(=O)N2CCC(O)C2)cc1` (centres unmarked) [PTSA036], for which the IC50 came out at 2.54 mM.

The data set is the same for the next values; noted with them: Homo sapiens, NCI-H460, 48 h, derivative dissolved in water; 48 hours; SRB; read-out: IC50 of H460 in water.
For `Cc1ccc(S(=O)(=O)NC(CO)(CO)CO)cc1` [PTSA031], the IC50 is > 1 mM.

For the origin of these results see US10485773B2, “Benzenesulfonamide derivatives and method for treating cancer” (GONGWIN BIOPHARM HOLDINGS CO., LTD., priority 2016, dated 2019).
